Test results from patent US20240400980A1, “PORCINE PLURIPOTENT STEM CELL CULTURE MEDIUM AND USE THEREOF” (CHINA AGRICULTURAL UNIVERSITY, priority 2021, published 2024).
Entries after “also recorded” stand apart in the source; their conditions may differ.

How the values were obtained:
Type in all cases: cell-based, porcine
pgEpiSCs [1] = test: RT-qPCR of marker genes in pgEpiSCs in modified 3i/LAF medium; details: for marker gene mRNA expression after removal of the component: component removed from 3i/LAF medium, qRT-PCR
Experimental: Total RNA of pgEpiSCs was extracted using a RNAprep Pure Cell/Bacteria Kit (TIANGEN, DP430), and then reverse transcribed into cDNA using 5× all-in-one RT premix (Abm, G490). PCR was performed using 2× RealStar Green Power Mixture (GenStar, A311-05) on the LightCycler 480 II real-time system (Roche). Comparative CT (2^−ΔΔCT) method was used to analyze the data. ACT was calculated using EF1A as an internal control. Three biological replicates were performed for all experiments. Primers for quantitative real-time PCR were listed in the key resource table.
(§1) Based on the prepared 3i/LAF medium and its culture method in2 above, the requirement of various factors for long-term maintenance in vitro of pgEpiSCs was test by the inventors under the same conditions as in 2 above, except for removing small molecule inhibitors and cytokines from the medium one by one.
(§2) In addition, based on the prepared 3i/LAF medium and its culture method in 2 above, the following tests were also performed by the inventors under the same conditions as in 2 above.

pgEpiSCs [2] = test: Clone morphology and alkaline phosphatase (AP) staining of pgEpiSCs in modified 3i/LAF medium; details: for clone morphology / AP staining after removal of the component: component removed from 3i/LAF medium
Source text: The alkaline phosphatase staining for pgEpiSCs was based on the Alkaline Phosphatase Detection Kit (Millipore, SCR004).
The specific experimental steps followed the instructions for the kit.
as §1, §2
According to the 3i/LAF medium and its culture method prepared in 2 above, the inventors also investigated the effect of the adjusted or replaced medium on the long-term in vitro maintenance of pgEpiSCs on the basis of adjusting the concentrations of the small molecule inhibitors and cytokines or replacing the compositions of the small molecule inhibitors and cytokines in the culture medium one by one without altering the other conditions.
Experimental method: pgEpiSCs were cultured with the adjusted medium, after which AP staining was performed on the cultured pgEpiSCs of P1 (indicating the pgEpiSCs after 1 passage in the adjusted medium) or P3 (indicating the pgEpiSCs after 3 passages in the adjusted medium). The specific steps of AP staining are described in the section of Experimental Methods described previously.
Principle of the experiment: undifferentiated stem cells will express Ap at high level. By staining fixed stem cells, differentiated cells show no color and undifferentiated cells show purple or red color.

pgEpiSCs [3] = test: Immunofluorescence of POU5F1 and EOMES in pgEpiSCs in modified 3i/LAF medium; details: component removed from 3i/LAF medium
Experimental: Cells were washed with DPBS (Gibco, C14190500BT) and fixed with 4% paraformaldehyde at room temperature for 30 minutes, then washed again with DPBS, permeabilized in 0.1% Triton X-100 for 20 minutes, and blocked with 3% BSA for 1 hour. Cells were incubated with the primary antibody diluted with 3% BSA overnight at 4° C. Cells were then washed 3 times with the washing buffer (DPBS containing 0.1% Triton X-100 and 0.1% Tween 20) for 3 minutes each time. Cells were incubated with diluted secondary antibody and washing buffer together at room temperature for 1 hour, then washed 3 times with the washing buffer for 5 minutes, followed by nuclear staining with DAPI (Roche Life Science, 10236276001) for 3 minutes.
as §1

pgEpiSCs [4] = test: Proliferation and passage of pgEpiSCs with FGF2 removed or varied; details: for proliferation and passage of pgEpiSCs: FGF2 removed, with addition of PD0325901
Experimental: Porcine EpiSCs were cultured in 12-well plates. Cell samples were seeded in triplicate at a density of 2×10^4 cells per well. Cells were counted every 12 hours. Cells were digested and counted using the Luna™ automated cell counter at each time point. The results of the three counts were averaged and plotted. The cell doubling time was calculated as follows: Doubling Time (DT)=24×[lg2/(lgNt−IgN0)], where 24 was the cell culture time (hours); Nt was the number of cells cultured for 48 hours; and No was the number of cells recorded at 24 hours.
as §1

phosphorylated STAT3 = test: Western blot of phosphorylated STAT3 in pgEpiSCs; details: with or without LIF; Western blotting
Experimental: Total proteins in cells were extracted using cell lysis buffer (Beyotime Biotechnology, P0013), and nuclear and cytoplasmic proteins were extracted using a cell nucleus and cytoplasmic protein extraction kit (Beyotime Biotechnology, P0027) supplemented with protease and phosphatase inhibitors (P1050). The concentration of extracted proteins was measured using a Bradford protein detection kit (Bio-red, 5000201). An equal amount of proteins (15 μg) were separated by SDS-PAGE gel electrophoresis, and then transferred from the gel to the Immobilon-P transfer membrane (Merck Millipore; pore size: 0.45 μm; IPVH00010). The blots were blocked in 5% skim milk powder (Sangon Biotech, A600669-0250) in TBST (20 mM Tris, pH 7.5; 150 mM NaCl; 0.1% Tween 20) at room temperature for 1 hour, and then incubated with the antibody diluted in 5% skim milk powder in TBST at 4° C. overnight. The next day, the blots were rinsed 3 times with TBST for 5 minutes each time, and then incubated with HRP conjugated secondary antibody diluted in 5% skim milk powder in TBST at room temperature for 1 hour, and finally rinsed 3 times with TBST for 5 minutes each time. The blots were developed using SuperSignal® West Dura Extended Duration Substrate (Thermo Fisher Scientific, 34075), followed by analysis of the band strength of the target protein using the CLINX chemiluminescence software. […]

[5] = IWR-1-endo replaced in 3i/LAF medium

Cc1c[nH]c(-c2cnc(NCCNc3ccc(C#N)cn3)nc2-c2ccc(Cl)cc2Cl)n1 [CHIR99021]
marker gene mRNA expression after removal of the component (pgEpiSCs [1]): downregulated the expression of cell proliferation related genes such as LIN28A, C-MYC, ETV4 and ETV5
expression of POU5F1 and GATA6 at high concentration (pgEpiSCs [1]; high concentration of CHIR99021 in 3i/LAF medium): downregulation of the pluripotency marker POU5F1 and significant upregulation of the endodermal marker GATA6; also recorded: the expression of the pluripotency gene POU5F1 was reduced, and the expression of the lineage differentiation gene GATA6 was upregulated, presenting a heterogeneous expression pattern
expression levels of TBX3 and ESRRB (pgEpiSCs [1]; increasing concentration of CHIR99021 in 3i/LAF medium): increased with increasing concentration

O=C(Nc1cccc2cccnc12)c1ccc(N2C(=O)[C@@H]3[C@H](C2=O)[C@@H]2C=C[C@H]3C2)cc1 [IWR-1-endo]
marker gene mRNA expression after removal of the component (pgEpiSCs [1]): significant downregulation of core pluripotency factors such as NANOG, POU5F1, SOX2 and REX1; also recorded: upregulation of the gastrulation formation marker genes BMP2, BMP4, EOMES and T
clone morphology / AP staining after removal of the component (pgEpiSCs [2]): unclear boundaries of pgEpiSC clones
POU5F1 and EOMES immunostaining after removal of the component (pgEpiSCs [3]): reduced or heterogeneous accumulation of the pluripotency factor POU5F1, while promoting the expression of the mesoderm and endoderm progenitor cell marker EOMES

O=C(NOC[C@H](O)CO)c1ccc(F)c(F)c1Nc1ccc(I)cc1F [PD0325901]
proliferation and passage of pgEpiSCs (pgEpiSCs [4]): could not proliferate or passage normally

NC(=O)c1ccc(-c2nc(-c3ccc4c(c3)OCO4)c(-c3ccccn3)[nH]2)cc1 [SB431542]
BMP4 and BMP downstream transcription factors ID2, ID3 after addition of the inhibitor (pgEpiSCs [1]; inhibitor added to the medium): significant increase in BMP4 and BMP downstream transcription factors (such as ID2 and ID3)
NANOG levels after addition of the inhibitor (pgEpiSCs [1]; inhibitor added to the medium): significant decline in NANOG levels
pluripotency markers POU5F1 and REX1 after addition of the inhibitor (pgEpiSCs [1]; inhibitor added to the medium): significant decrease in pluripotency markers (such as POU5F1 and REX1)
clone morphology after addition of the inhibitor (pgEpiSCs [2]; inhibitor added to the medium): irregular clone morphology

COc1ccc(N(C(=O)Oc2c(C)cccc2C)c2ccnc(Nc3ccc(N4CCN(C)CC4)cc3)n2)c(OC)c1 [WH-4-023]
marker gene mRNA expression after removal of the component (pgEpiSCs [1]): upregulation of the gastrulation formation marker genes BMP2, BMP4, EOMES and T
POU5F1 and EOMES immunostaining after removal of the component (pgEpiSCs [3]): reduced or heterogeneous accumulation of the pluripotency factor POU5F1, while promoting the expression of the mesoderm and endoderm progenitor cell marker EOMES

Oc1nc(-c2ccc(C(F)(F)F)cc2)nc2c1CSCC2 [XAV939]
expression of core pluripotency factor OCT4 (POU5F1) (pgEpiSCs [1]; [5]): downregulated
expression of pluripotency factors REX1, STELLA, and ESRRB (pgEpiSCs [1]; [5]): downregulated
maintenance of pluripotency after replacing IWR-1-endo (pgEpiSCs [2]; [5]): unable to maintain pluripotency for a long time
passages until AP positivity was lost (pgEpiSCs [2]; [5]): around 8 passages

FGF2: fibroblast growth factor; recombinant human FGF-basic, Peprotech 100-18B
proliferation and passage of pgEpiSCs (pgEpiSCs [4]): could not proliferate or passage normally
proliferation of pgEpiSCs at high concentration (pgEpiSCs [4]; high concentration of FGF2): cells proliferated faster at the high concentration
proliferation ability of pgEpiSCs at reduced concentration (pgEpiSCs [4]; reduced concentration of FGF2, otherwise unchanged conditions): significantly reduced the proliferation ability of pgEpiSCs

LIF: cytokine of 3i/LAF; recombinant human LIF, PeproTech 300-05
detection of phosphorylated STAT3 (phosphorylated STAT3): phosphorylated STAT3 could only be detected in the presence of LIF
clone morphology / AP staining after removal of the component (pgEpiSCs [2]): not a necessary condition for maintaining the morphology of pgEpiSC clones

B1: Activin A: a member of the TGF-β superfamily; recombinant human Activin A, Peprotech 120-14E (protein, UniProt P08476 311-426, looked up)
Inhibin beta A chain: GLECDGKVNICCKKQFFVSFKDIGWNDWIIAPSGYHANYCEGECPSHIAGTSGSSLSFHSTVINHYRMRGHSPFANLKSCCVPTKLRPMSMLYYDDGQNIIKKDIQNMIVEECGCS
modifications: Inhibin beta A chain recombinant homodimer
marker gene mRNA expression after removal of the component (pgEpiSCs [1]): reduced levels of the pluripotency marker NANOG
